Results as given in PubChem BioAssay (NCI).
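All cell lines were grown in 96-well plates and treated with compound for 48 hours. The concentration for full growth arrest is given as TGI.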

Assays:
Test in all cases: DTP human tumour cell line panel, 48 h
786-0 renal = tested on: 786-0 renal
DU-145 prostate = tested on: DU-145 prostate
UACC-257 melanoma = tested on: UACC-257 melanoma
MALME-3M melanoma = tested on: MALME-3M melanoma
SK-MEL-28 melanoma = tested on: SK-MEL-28 melanoma
HCT-15 colon = tested on: HCT-15 colon
UO-31 renal = tested on: UO-31 renal
SNB-75 CNS = tested on: SNB-75 CNS
NCI-H522 lung = tested on: NCI-H522 lung
EKVX NSCLC = tested on: EKVX NSCLC
MDA-MB-435 = tested on: MDA-MB-435
BT-549 breast = tested on: BT-549 breast
HL-60(TB) leukemia = tested on: HL-60(TB) leukemia
HOP-92 NSCLC = tested on: HOP-92 NSCLC
KM12 colon = tested on: KM12 colon
CAKI-1 renal = tested on: CAKI-1 renal
ACHN renal = tested on: ACHN renal
MDA-MB-231 breast = tested on: MDA-MB-231 breast
A549 NSCLC = tested on: A549 NSCLC
COLO 205 colon = tested on: COLO 205 colon
MOLT-4 leukemia = tested on: MOLT-4 leukemia
TK-10 renal = tested on: TK-10 renal
OVCAR-3 ovarian = tested on: OVCAR-3 ovarian
SK-OV-3 ovarian = tested on: SK-OV-3 ovarian
IGROV1 ovarian = tested on: IGROV1 ovarian
K-562 leukemia = tested on: K-562 leukemia
NCI/ADR-RES ovarian = tested on: NCI/ADR-RES ovarian
SK-MEL-5 melanoma = tested on: SK-MEL-5 melanoma
U251 CNS = tested on: U251 CNS
MDA-N = tested on: MDA-N
HT29 colon = tested on: HT29 colon
NCI-H23 lung = tested on: NCI-H23 lung
SNB-19 CNS = tested on: SNB-19 CNS
RXF 393 renal = tested on: RXF 393 renal
HOP-62 NSCLC = tested on: HOP-62 NSCLC
RPMI-8226 leukemia = tested on: RPMI-8226 leukemia
SF-295 CNS = tested on: SF-295 CNS
OVCAR-4 ovarian = tested on: OVCAR-4 ovarian
LOX IMVI melanoma = tested on: LOX IMVI melanoma
SW-620 colon = tested on: SW-620 colon
SN12C renal = tested on: SN12C renal
UACC-62 melanoma = tested on: UACC-62 melanoma
NCI-H460 lung = tested on: NCI-H460 lung
CCRF-CEM leukemia = tested on: CCRF-CEM leukemia
M14 melanoma = tested on: M14 melanoma
OVCAR-8 ovarian = tested on: OVCAR-8 ovarian
A498 renal = tested on: A498 renal
OVCAR-5 ovarian = tested on: OVCAR-5 ovarian
T-47D breast = tested on: T-47D breast
HCT-116 colon = tested on: HCT-116 colon
HS 578T breast = tested on: HS 578T breast
SR leukemia = tested on: SR leukemia
PC-3 prostate = tested on: PC-3 prostate
SF-268 CNS = tested on: SF-268 CNS
MCF7 breast = tested on: MCF7 breast
SK-MEL-2 melanoma = tested on: SK-MEL-2 melanoma

Measured: TGI

CS(=O)(=O)OC1CN2CCC1CC2 (stereo unspecified)
> 100 µM: all assays above
